Results from the supplement of paper PMC10307832.

How the values were obtained:
Assay in all cases: relative viability (nuclei count vs DMSO), 5 days (fraction); higher = more cells survive
ChaGo-K-1 = system: ChaGo-K-1
Procedure, shortened: (§1)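 After 5 days of treatment, lung cancer cells in 1536-well plates were fixed and stained in a single step (final 0.05% Triton X-100, 1% formaldehyde, 1 ug/ml Hoechst) and their nuclei counted on 4× images. Treatment had been applied by pin tool the day after seeding as one drug alone or as a fixed anchor-drug dose with five library-drug doses (not always all listed) in √10 steps. Relative viability is the nuclei count of treated wells divided by that of vehicle wells, and values are medians of duplicate plates.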

NCI-H2347 = system: NCI-H2347
Procedure, shortened: as §1

NCI-H650 = system: NCI-H650
Procedure, shortened: as §1

EPLC-272H = system: EPLC-272H
Procedure, shortened: as §1

RERF-LC-KJ = system: RERF-LC-KJ
Procedure, shortened: as §1

HOP-62 = system: HOP-62
Procedure, shortened: as §1

NCI-H1793 = system: NCI-H1793
Procedure, shortened: as §1

NCI-H1395 = system: NCI-H1395
Procedure, shortened: as §1

HCC-827 = system: HCC-827
Procedure, shortened: as §1

LOU-NH91 = system: LOU-NH91
Procedure, shortened: as §1

NCI-H322M = system: NCI-H322M
Procedure, shortened: as §1

SW 900 = system: SW 900
Procedure, shortened: as §1

NCI-H2170 = system: NCI-H2170
Procedure, shortened: as §1

NCI-H2228 = system: NCI-H2228
Procedure, shortened: as §1

NCI-H647 = system: NCI-H647
Procedure, shortened: as §1

NCI-H358 = system: NCI-H358
Procedure, shortened: as §1

NCI-H441 = system: NCI-H441
Procedure, shortened: as §1

NCI-H1755 = system: NCI-H1755
Procedure, shortened: as §1

PC-3 [JPC-3] = system: PC-3 [JPC-3]
Procedure, shortened: as §1

LXF-289 = system: LXF-289
Procedure, shortened: as §1

NCI-H596 = system: NCI-H596
Procedure, shortened: as §1

LCLC-103H = system: LCLC-103H
Procedure, shortened: as §1

NCI-H23 = system: NCI-H23
Procedure, shortened: as §1

NCI-H1651 = system: NCI-H1651
Procedure, shortened: as §1

NCI-H2126 = system: NCI-H2126
Procedure, shortened: as §1

## Nc1cccc2c1CN(C1CCC(=O)NC1=O)C2=O (stereo not drawn) [Lenalidomide] + O=C(c1cc(Cc2n[nH]c(=O)c3ccccc23)ccc1F)N1CCN(C(=O)C2CC2)CC1 [Olaparib] (partner 8 µM)
ChaGo-K-1; first compound 0.253 µM
  relative viability: 0.387
ChaGo-K-1; first compound 0.8 µM
  relative viability: 0.407
ChaGo-K-1; first compound 2.53 µM
  relative viability: 0.421
ChaGo-K-1; first compound 8 µM
  relative viability: 0.478
NCI-H2347; first compound 0.253 µM
  relative viability: 0.62
NCI-H2347; first compound 0.8 µM
  relative viability: 0.567
NCI-H2347; first compound 2.53 µM
  relative viability: 0.579
NCI-H2347; first compound 8 µM
  relative viability: 0.509
NCI-H650; first compound 0.253 µM
  relative viability: 0.384
NCI-H650; first compound 0.8 µM
  relative viability: 0.294
NCI-H650; first compound 2.53 µM
  relative viability: 0.544
NCI-H650; first compound 8 µM
  relative viability: 0.369
EPLC-272H; first compound 0.253 µM
  relative viability: 0.777
EPLC-272H; first compound 2.53 µM
  relative viability: 0.613
EPLC-272H; first compound 8 µM
  relative viability: 0.657
RERF-LC-KJ; first compound 0.253 µM
  relative viability: 0.812
RERF-LC-KJ; first compound 0.8 µM
  relative viability: 0.704
RERF-LC-KJ; first compound 2.53 µM
  relative viability: 0.884
RERF-LC-KJ; first compound 8 µM
  relative viability: 1.05
HOP-62; first compound 0.253 µM
  relative viability: 0.38
HOP-62; first compound 0.8 µM
  relative viability: 0.366
HOP-62; first compound 2.53 µM
  relative viability: 0.537
HOP-62; first compound 8 µM
  relative viability: 0.406
NCI-H1793; first compound 0.253 µM
  relative viability: 0.863
NCI-H1793; first compound 2.53 µM
  relative viability: 1.07
NCI-H1793; first compound 8 µM
  relative viability: 0.539
NCI-H1395; first compound 0.253 µM
  relative viability: 0.453
NCI-H1395; first compound 2.53 µM
  relative viability: 0.523
NCI-H1395; first compound 8 µM
  relative viability: 0.458
HCC-827; first compound 0.253 µM
  relative viability: 0.633
HCC-827; first compound 0.8 µM
  relative viability: 0.57
HCC-827; first compound 2.53 µM
  relative viability: 0.668
HCC-827; first compound 8 µM
  relative viability: 0.612
LOU-NH91; first compound 0.253 µM
  relative viability: 0.934
LOU-NH91; first compound 0.8 µM
  relative viability: 0.948
LOU-NH91; first compound 2.53 µM
  relative viability: 0.906
LOU-NH91; first compound 8 µM
  relative viability: 0.898
NCI-H322M; first compound 0.253 µM
  relative viability: 0.831
NCI-H322M; first compound 0.8 µM
  relative viability: 0.736
NCI-H322M; first compound 2.53 µM
  relative viability: 0.886
NCI-H322M; first compound 8 µM
  relative viability: 0.945
SW 900; first compound 2.53 µM
  relative viability: 0.913
SW 900; first compound 8 µM
  relative viability: 0.858
NCI-H2170; first compound 0.253 µM
  relative viability: 0.57
NCI-H2170; first compound 0.8 µM
  relative viability: 0.611
NCI-H2170; first compound 2.53 µM
  relative viability: 0.67
NCI-H2170; first compound 8 µM
  relative viability: 0.553
NCI-H2228; first compound 0.253 µM
  relative viability: 0.544
NCI-H2228; first compound 0.8 µM
  relative viability: 0.502
NCI-H2228; first compound 2.53 µM
  relative viability: 0.753
NCI-H2228; first compound 8 µM
  relative viability: 0.583
NCI-H647; first compound 0.253 µM
  relative viability: 0.525
NCI-H647; first compound 0.8 µM
  relative viability: 0.543
NCI-H647; first compound 2.53 µM
  relative viability: 0.65
NCI-H647; first compound 8 µM
  relative viability: 0.566
NCI-H358; first compound 0.8 µM
  relative viability: 0.607
NCI-H358; first compound 2.53 µM
  relative viability: 0.652
NCI-H358; first compound 8 µM
  relative viability: 0.665
NCI-H441; first compound 0.253 µM
  relative viability: 0.471
NCI-H441; first compound 0.8 µM
  relative viability: 0.502
NCI-H441; first compound 2.53 µM
  relative viability: 0.625
NCI-H441; first compound 8 µM
  relative viability: 0.577
NCI-H1755; first compound 0.253 µM
  relative viability: 0.86
NCI-H1755; first compound 0.8 µM
  relative viability: 0.861
NCI-H1755; first compound 2.53 µM
  relative viability: 0.899
NCI-H1755; first compound 8 µM
  relative viability: 0.777
PC-3 [JPC-3]; first compound 0.253 µM
  relative viability: 1.12
PC-3 [JPC-3]; first compound 0.8 µM
  relative viability: 1.1
PC-3 [JPC-3]; first compound 2.53 µM
  relative viability: 1.32
PC-3 [JPC-3]; first compound 8 µM
  relative viability: 1.38
LXF-289; first compound 0.253 µM
  relative viability: 1.04
LXF-289; first compound 0.8 µM
  relative viability: 1.17
LXF-289; first compound 2.53 µM
  relative viability: 1.24
LXF-289; first compound 8 µM
  relative viability: 1.16
NCI-H596; first compound 0.253 µM
  relative viability: 0.758
NCI-H596; first compound 0.8 µM
  relative viability: 0.705
NCI-H596; first compound 2.53 µM
  relative viability: 0.77
NCI-H596; first compound 8 µM
  relative viability: 0.77
LCLC-103H; first compound 0.253 µM
  relative viability: 0.718
LCLC-103H; first compound 0.8 µM
  relative viability: 0.667
LCLC-103H; first compound 2.53 µM
  relative viability: 0.76
LCLC-103H; first compound 8 µM
  relative viability: 0.741
NCI-H23; first compound 0.253 µM
  relative viability: 0.289
NCI-H23; first compound 2.53 µM
  relative viability: 0.3
NCI-H23; first compound 8 µM
  relative viability: 0.367
NCI-H1651; first compound 0.253 µM
  relative viability: 0.153
NCI-H1651; first compound 0.8 µM
  relative viability: 0.169
NCI-H1651; first compound 2.53 µM
  relative viability: 0.219
NCI-H1651; first compound 8 µM
  relative viability: 0.194
NCI-H2126; first compound 0.253 µM
  relative viability: 0.934
NCI-H2126; first compound 0.8 µM
  relative viability: 0.857
NCI-H2126; first compound 2.53 µM
  relative viability: 0.983
NCI-H2126; first compound 8 µM
  relative viability: 0.854
